Experimental data reported in US20240246979A1, “cGAS INHIBITORS” (Eli Lilly and Company, priority 2022, published 2024).

Columns and labels:
cGAS [1] = target: T1, cGAS (Homo sapiens, UniProt Q8N884); test: In vitro inhibition assay of cGAS activity (cGAMP production, RapidFire mass spectrometry); type: biochemical; design: Insert cDNA encoding full-length of human cGAS; His6; made in house; host or cells: E. coli BL21(DE3); conditions: 10 nM recombinant human cGAS, 60 nM 75-bp dsDNA, 50 μM ATP, 50 μM GTP, 3 hrs
T1 sequence (Q8N884 whole entry): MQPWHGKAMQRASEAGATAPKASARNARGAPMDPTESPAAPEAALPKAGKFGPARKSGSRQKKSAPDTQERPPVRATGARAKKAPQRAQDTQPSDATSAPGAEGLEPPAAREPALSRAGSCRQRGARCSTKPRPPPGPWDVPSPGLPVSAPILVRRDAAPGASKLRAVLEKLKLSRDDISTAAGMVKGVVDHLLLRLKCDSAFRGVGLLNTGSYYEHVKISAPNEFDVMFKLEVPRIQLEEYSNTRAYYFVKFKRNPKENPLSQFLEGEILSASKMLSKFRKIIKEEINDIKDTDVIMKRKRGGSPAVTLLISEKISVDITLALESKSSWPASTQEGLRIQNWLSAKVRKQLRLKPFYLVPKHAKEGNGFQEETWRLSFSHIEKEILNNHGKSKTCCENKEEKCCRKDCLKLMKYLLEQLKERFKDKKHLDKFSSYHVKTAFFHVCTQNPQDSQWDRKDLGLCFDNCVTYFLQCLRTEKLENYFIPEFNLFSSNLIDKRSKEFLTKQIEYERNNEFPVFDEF
Method in brief: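 His6-tagged full-length human cGAS (10 nM, E. coli-expressed) was incubated for 3 hrs at ambient temperature with 60 nM 75-bp dsDNA, 50 μM ATP and 50 μM GTP in Tris pH 7.5/MgCl2 buffer with compound dilutions. cGAMP was quantified by RapidFire mass spectrometry against an internal standard, and IC50 was obtained by 4-parameter logistic fit.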

cGAS [2] = target: T1, cGAS; test: Cellular assay to measure cGAS activity (IFNb AlphaLISA in THP1 cells stimulated by RDG-Adenovirus-GFP); type: cell-based; design: host or cells: THP1 cells differentiated with PMA and stimulated with RDG-Adenovirus-GFP; conditions: PMA-differentiated THP1 cells, RDG-Adenovirus-GFP at 1000 MOI; inhibition of IFNb production as marker for cGAS activity
Method in brief: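 PMA-differentiated THP1 cells were infected with RDG-Adenovirus-GFP at 1000 MOI for 4 h, then exposed overnight to test compounds. IFNb in the supernatant was quantified by AlphaLISA as a cGAS activity marker, and IC50 was fitted with a 4-parameter logistic equation.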

Row | IC50 (cGAS [1]) [nM] | IC50 (cGAS [2]) [nM] | Compound
1 | ≥ 39800 | > 10000 | C[C@H]1C(=O)NCC(C)(C)c2[nH]c3c(Cl)c(Cl)cc(NC(=O)CO)c3c21 (single isomer, unassigned) [Example 132]
2 | 20 | 820 | C[C@H]1C(=O)NCC(C)(C)c2[nH]c3c(Cl)c(Cl)cc(NC(=O)CO)c3c21 (single isomer, unassigned) [Example 133]
3 | 17.5 | 787 | C[C@H]1C(=O)NCC(C)(C)c2c1c1c(NC(=O)CO)cc(Cl)c(Cl)c1n2C (single isomer, unassigned) [Example 134, (R)—N-(7,8-Dichloro-1,5,5,6-tetramethyl-2-oxo-1,2,3,4,5,6-hexahydroazepino[4,5-b]indol-10-yl)-2-hydroxyacetamide or (S)—N-(7,8-Dichloro-1,5,5,6-tetramethyl-2-oxo-1,2,3,4,5,6-hexahydroazepino[4,5-b]indol-10-yl)-2-hydroxyacetamide]
4 | 20200 | ≥ 10000 | C[C@H]1C(=O)NCC(C)(C)c2c1c1c(NC(=O)CO)cc(Cl)c(Cl)c1n2C (single isomer, unassigned) [Example 135, (R)—N-(7,8-Dichloro-1,5,5,6-tetramethyl-2-oxo-1,2,3,4,5,6-hexahydroazepino[4,5-b]indol-10-yl)-2-hydroxyacetamide or (S)—N-(7,8-Dichloro-1,5,5,6-tetramethyl-2-oxo-1,2,3,4,5,6-hexahydroazepino[4,5-b]indol-10-yl)-2-hydroxyacetamide]
5 | 16 | 1570 | Cn1ncc(-c2cc(Cl)c(Cl)c3[nH]c4c(c23)CC(=O)NC[C@H]4CC(C)(F)F)n1 (single isomer, unassigned) [Example 136]
6 | 683 | > 10000 | Cn1ncc(-c2cc(Cl)c(Cl)c3[nH]c4c(c23)CC(=O)NC[C@H]4CC(C)(F)F)n1 (single isomer, unassigned) [Example 137]
7 | 29.6 | 293 | C[C@H](O)C(=O)Nc1cc(Cl)c(Cl)c2c1c1c(n2C(F)F)CCNC(=O)[C@H]1C (single isomer, unassigned) [Example 142]
8 | 1510 | > 10000 | C[C@H](O)C(=O)Nc1cc(Cl)c(Cl)c2c1c1c(n2C(F)F)CCNC(=O)[C@H]1C (single isomer, unassigned) [Example 143]
9 | 12.3 | 287 | C[C@H]1C(=O)NCCc2c1c1c(NC(=O)CO)cc(Cl)c(Cl)c1n2C(F)F (single isomer, unassigned) [Example 145, (R)—N-(7,8-Dichloro-6-(difluoromethyl)-1-methyl-2-oxo-1,2,3,4,5,6-hexahydroazepino[4,5-b]indol-10-yl)-2-hydroxyacetamide or (S)—N-(7,8-Dichloro-6-(difluoromethyl)-1-methyl-2-oxo-1,2,3,4,5,6-hexahydroazepino[4,5-b]indol-10-yl)-2-hydroxyacetamide]
10 | 27.2 | 300 | C[C@@H]1CNC(=O)Cc2c1[nH]c1c(Cl)c(Cl)cc(-c3cnn(C)n3)c21 (single isomer, unassigned) [Example 146]
11 | 237 | 5170 | C[C@@H]1CNC(=O)Cc2c1[nH]c1c(Cl)c(Cl)cc(-c3cnn(C)n3)c21 (single isomer, unassigned) [Example 147]
12 | 12.4 | 394 | C[C@@H]1CNC(=O)[C@@H](C)c2c1[nH]c1c(Cl)c(Cl)cc(NCCO)c21 (single isomer, unassigned) [Example 154]
13 | 17.7 | 655 | C[C@@H]1CNC(=O)[C@H](C)c2c1[nH]c1c(Cl)c(Cl)cc(NCCO)c21 (single isomer, unassigned) [Example 155]
14 | 1810 | > 10000 | C[C@@H]1CNC(=O)[C@H](C)c2c1[nH]c1c(Cl)c(Cl)cc(NCCO)c21 (single isomer, unassigned) [Example 156]
15 | 6680 | > 10000 | C[C@@H]1CNC(=O)[C@@H](C)c2c1[nH]c1c(Cl)c(Cl)cc(NCCO)c21 (single isomer, unassigned) [Example 157]
16 | 13 | 256 | C[C@@H]1CNC(=O)[C@@H](C)c2c1[nH]c1c(Cl)c(Cl)cc(NC(=O)CO)c21 (single isomer, unassigned) [Example 160, N-((1S,5R)-7,8-Dichloro-1,5-dimethyl-2-oxo-1,2,3,4,5,6-hexahydroazepino[4,5-b]indol-10-yl)-2-hydroxyacetamide or N-((1R,5S)-7,8-Dichloro-1,5-dimethyl-2-oxo-1,2,3,4,5,6-hexahydroazepino[4,5-b]indol-10-yl)-2-hydroxyacetamide]
17 | 3730 | > 10000 | C[C@@H]1CNC(=O)[C@@H](C)c2c1[nH]c1c(Cl)c(Cl)cc(NC(=O)CO)c21 (single isomer, unassigned) [Example 161, N-((1S,5R)-7,8-Dichloro-1,5-dimethyl-2-oxo-1,2,3,4,5,6-hexahydroazepino[4,5-b]indol-10-yl)-2-hydroxyacetamide or N-((1R,5S)-7,8-Dichloro-1,5-dimethyl-2-oxo-1,2,3,4,5,6-hexahydroazepino[4,5-b]indol-10-yl)-2-hydroxyacetamide]
18 | 12.8 | 624 | COCC[C@@H]1CNC(=O)Cc2c1[nH]c1c(Cl)c(Cl)cc(-c3cnn(C)n3)c21 (single isomer, unassigned) [Example 167]
19 | 109 | 4600 | COCC[C@H]1CNC(=O)Cc2c1[nH]c1c(Cl)c(Cl)cc(-c3cnn(C)n3)c21 (single isomer, unassigned) [Example 168]
20 | 7.84 | 483 | COCC[C@H]1CNC(=O)[C@H](C)c2c1[nH]c1c(Cl)c(Cl)cc(NCCO)c21 (single isomer, unassigned) [Example 171]
21 | 1810 | > 10000 | COCC[C@H]1CNC(=O)[C@H](C)c2c1[nH]c1c(Cl)c(Cl)cc(NCCO)c21 (single isomer, unassigned) [Example 172]
22 | 14.7 | 1610 | COCC[C@H]1CNC(=O)[C@@H](C)c2c1[nH]c1c(Cl)c(Cl)cc(NCCO)c21 (single isomer, unassigned) [Example 173]
23 | 361 | > 10000 | COCC[C@H]1CNC(=O)[C@@H](C)c2c1[nH]c1c(Cl)c(Cl)cc(NCCO)c21 (single isomer, unassigned) [Example 174]
24 | 54.6 | 1440 | Cn1ncc(-c2cc(Cl)c(Cl)c3[nH]c4c(c23)CC(=O)NC[C@H]4CCN2CCOCC2)n1 (single isomer, unassigned) [Example 175]

Row | Compound | IC50 (cGAS [1]) [nM] | IC50 (cGAS [2]) [nM]
25 | Cn1c2c(c3c(CC#N)cc(Cl)c(Cl)c31)CC(=O)NC[C@H]2CCO (single isomer, unassigned) [Example 122] | 934 | 2940
26 | Cn1c2c(c3c(CC#N)cc(Cl)c(Cl)c31)CC(=O)NC[C@H]2CCO (single isomer, unassigned) [Example 123] | 14.1 | 181
27 | Cn1c2c(c3c(OCC#N)cc(Cl)c(Cl)c31)CC(=O)NC[C@H]2CCO (single isomer, unassigned) [Example 125] | 18 | 272
28 | Cn1c2c(c3c(OCC#N)cc(Cl)c(Cl)c31)CC(=O)NC[C@H]2CCO (single isomer, unassigned) [Example 126] | 997 | 501
29 | Cn1c2c(c3c(CC#N)cc(Cl)c(Cl)c31)CC(=O)NC[C@H]2CC(C)(C)O (single isomer, unassigned) [Example 129] | 1550 | 1320
30 | Cn1c2c(c3c(CC#N)cc(Cl)c(Cl)c31)CC(=O)NC[C@H]2CC(C)(C)O (single isomer, unassigned) [Example 130] | 12.3 | 205
31 | CC(F)(F)C[C@@H]1CNC(=O)Cc2c1[nH]c1c(Cl)c(Cl)cc(CC#N)c21 (single isomer, unassigned) [Example 138] | 8 | 431
32 | CC(F)(F)C[C@@H]1CNC(=O)Cc2c1[nH]c1c(Cl)c(Cl)cc(CC#N)c21 (single isomer, unassigned) [Example 139] | 824 | 4610
33 | C[C@@H]1CNC(=O)Cc2c1[nH]c1c(Cl)c(Cl)cc(OCC#N)c21 (single isomer, unassigned) [Example 148] | 41.4 | 1390
34 | C[C@@H]1CNC(=O)Cc2c1[nH]c1c(Cl)c(Cl)cc(OCC#N)c21 (single isomer, unassigned) [Example 149] | 1560 | 3080
35 | C[C@@H]1CNC(=O)[C@@H](C)c2c1[nH]c1c(Cl)c(Cl)cc(CC#N)c21 (single isomer, unassigned) [Example 150] | 25.9 | 2120
36 | C[C@@H]1C(=O)NC[C@H](C)c2[nH]c3c(Cl)c(Cl)cc(CC#N)c3c21 (single isomer, unassigned) [Example 151] | 19.7 | 1770
37 | C[C@@H]1C(=O)NC[C@H](C)c2[nH]c3c(Cl)c(Cl)cc(CC#N)c3c21 (single isomer, unassigned) [Example 152] | 948 | 5310
38 | C[C@@H]1CNC(=O)[C@@H](C)c2c1[nH]c1c(Cl)c(Cl)cc(CC#N)c21 (single isomer, unassigned) [Example 153] | 2420 | > 10000
